The results in this text go back to ChEMBL document CHEMBL4818987, “Recent advances of podophyllotoxin/epipodophyllotoxin hybrids in anticancer activity, mode of action, and structure-activity relationship: An update (2010-2020)” (Eur J Med Chem, 2020).

Common to all, as to assay type: functional, cell-based
Assay [1] concerns HeLa. In words: Antiproliferative activity against human HeLa cells incubated for 48 hrs by MTT assay. In general terms: Formazan colour is commonly taken as a measure of viable cells.
The subject of assay [2] is A549. In words: Antiproliferative activity against human A549 cells incubated for 48 hrs by MTT assay. The settings on record: A549, 48 h.
For assay [3], the system named is HepG2. Put plainly: Antiproliferative activity against human HepG2 cells incubated for 48 hrs by MTT assay. The settings on record: HepG2, 48 h.
For assay [4], the system named is MCF7. Put plainly: Antiproliferative activity against human MCF7 cells incubated for 48 hrs by MTT assay. The settings on record: MCF7, 48 h.
The subject of assay [5] is SW480. Put plainly: Antiproliferative activity against human SW480 cells incubated for 48 hrs by MTT assay. The settings on record: SW480, 48 h.
For assay [6], the system named is SMMC-7721. In words: Antiproliferative activity against human SMMC-7721 cells incubated for 48 hrs by MTT assay. The settings on record: SMMC-7721, 48 h.
Assay [7] deals with HL-60. Put plainly: Antiproliferative activity against human HL-60 cells incubated for 48 hrs by MTT assay. The settings on record: HL-60, 48 h.

Molecules are shown by their SMILES.

`COc1cc([C@@H]2c3cc4c(cc3C[C@H]3COC(=O)[C@@H]32)OCO4)cc(OC)c1OC(=O)NCC(=O)N1CCN(c2ccc([N+](=O)[O-])cc2)CC1`: the IC50 (as a rule, the point on the concentration scale where inhibition reaches its midpoint) in assay [1] came out at 183 nM; in assay [2] it was 183 nM; in assay [3], 210 nM.

For the compound `COc1cc([C@@H]2c3cc4c(cc3[C@H](OC(=O)CCCCCNC(=O)CCCC[C@@H]3SC[C@@H]5NC(=O)N[C@@H]53)[C@H]3COC(=O)[C@H]23)OCO4)cc(OC)c1OC`, the IC50 in assay [2], in assay [4], in assay [5], in assay [6] and in assay [7] was more than 130 nM each time.

For the compound `COc1cc([C@@H]2c3cc4c(cc3[C@@H](OC(=O)CCCCCNC(=O)CCCC[C@@H]3SC[C@@H]5NC(=O)N[C@@H]53)[C@H]3COC(=O)[C@H]23)OCO4)cc(OC)c1O`, the IC50 in assay [2], in assay [4], in assay [5], in assay [6] and in assay [7] was more than 130 nM throughout.

Take `CCC[C@H]1O[C@H](O[C@@H]2c3cc4c(cc3[C@@H](c3cc(OC)c(O)c(OC)c3)[C@H]3C(=O)OC[C@@H]32)OCO4)CC[C@H]1O`: the IC50 in assay [1], in assay [2], in assay [4] and in assay [3] was 41.6 nM in each case.

Consider `CCC[C@@H]1O[C@H](O[C@H]2c3cc4c(cc3[C@@H](c3cc(OC)c(OC)c(OC)c3)[C@H]3C(=O)OC[C@@H]32)OCO4)CC[C@H]1O`, for which the half-inhibitory concentration (IC50) in assay [1], in assay [2], in assay [4] and in assay [3] was 41.6 nM in each case.

`COc1cc([C@@H]2c3cc4c(cc3[C@@H](n3cc(COC(=O)CCCC[C@@H]5SC[C@@H]6NC(=O)N[C@@H]65)nn3)[C@H]3COC(=O)[C@H]23)OCO4)cc(OC)c1O`: the IC50 in assay [2], in assay [4], in assay [5], in assay [6] and in assay [7] was more than 130 nM each time.

Turning to `COc1cc([C@@H]2c3cc4c(cc3[C@@H](n3cc(COC(=O)CCCCCNC(=O)CCCC[C@@H]5SC[C@@H]6NC(=O)N[C@@H]65)nn3)[C@H]3COC(=O)[C@H]23)OCO4)cc(OC)c1O`, the 50% inhibitory concentration (IC50) in assay [2], in assay [4], in assay [5], in assay [6] and in assay [7] was more than 130 nM throughout.

For `COc1cc([C@@H]2c3cc4c(cc3[C@@H](OC(=O)CCCCCNC(=O)CCCC[C@@H]3SC[C@@H]5NC(=O)N[C@@H]53)[C@H]3COC(=O)[C@H]23)OCO4)cc(OC)c1OC`, the IC50 in assay [2], in assay [4], in assay [5], in assay [6] and in assay [7] was more than 130 nM each time.

Consider `COc1cc([C@@H]2c3cc4c(cc3[C@@H](NC(=O)CCCC[C@@H]3SC[C@@H]5NC(=O)N[C@@H]53)[C@H]3COC(=O)[C@H]23)OCO4)cc(OC)c1OC`, for which the IC50 in assay [2], in assay [4], in assay [5], in assay [6] and in assay [7] was more than 130 nM throughout.

As for `CC[C@H]1O[C@@H](O[C@@H]2c3cc4c(cc3[C@@H](c3cc(OC)c(O)c(OC)c3)[C@H]3C(=O)OC[C@@H]32)OCO4)CC[C@H]1O`, the 50% inhibitory concentration (IC50) in assay [1], in assay [2], in assay [4] and in assay [3] was 41.6 nM each time.

Take `COc1cc([C@@H]2c3cc4c(cc3[C@@H](O[C@H]3CC[C@@H](O)[C@@H](C(C)C)O3)[C@H]3COC(=O)[C@H]23)OCO4)cc(OC)c1O`: the IC50 in assay [1], in assay [2], in assay [4] and in assay [3] was 41.6 nM each time.

Turning to `CCCC(=O)O[C@@H]1[C@@H](OC(=O)CCC)[C@@H](O[C@@H]2c3cc4c(cc3[C@@H](c3cc(OC)c(O)c(OC)c3)[C@H]3C(=O)OC[C@@H]32)OCO4)OC[C@H]1OC(=O)CCC`, the IC50 in assay [2], in assay [4], in assay [5], in assay [6] and in assay [7] was more than 2900 nM each time.

As for `COc1cc([C@@H]2c3cc4c(cc3[C@@H](O[C@@H]3CC[C@@H](O)[C@@H](C)O3)[C@H]3COC(=O)[C@H]23)OCO4)cc(OC)c1O`, the IC50 in assay [1], in assay [2], in assay [4] and in assay [3] was 41.6 nM each time.

With `COc1cc([C@@H]2c3cc4c(cc3[C@H](O[C@H]3CC[C@@H](O)[C@H](C(C)C)O3)[C@H]3COC(=O)[C@H]23)OCO4)cc(OC)c1OC`, the concentration for half-maximal inhibition (IC50) in assay [1], in assay [2], in assay [4] and in assay [3] was 41.6 nM each time.

Consider `COc1cc([C@@H]2c3cc4c(cc3[C@H](O[C@H]3CC[C@@H](O)[C@H](C)O3)[C@H]3COC(=O)[C@H]23)OCO4)cc(OC)c1OC`, for which the half-maximal inhibitory concentration (IC50) in assay [1], in assay [2], in assay [4] and in assay [3] was 41.6 nM throughout.

Turning to `COc1cc([C@@H]2c3cc4c(cc3[C@@H](NC(=O)CCCCCNC(=O)CCCC[C@@H]3SC[C@@H]5NC(=O)N[C@@H]53)[C@H]3COC(=O)[C@H]23)OCO4)cc(OC)c1O`, the IC50 in assay [2], in assay [4], in assay [5], in assay [6] and in assay [7] was more than 130 nM each time.

Regarding `COc1cc([C@@H]2c3cc4c(cc3[C@@H](OC(=O)CCCC[C@@H]3SC[C@@H]5NC(=O)N[C@@H]53)[C@H]3COC(=O)[C@H]23)OCO4)cc(OC)c1OC`, the IC50 in assay [2], in assay [4], in assay [5], in assay [6] and in assay [7] was more than 130 nM throughout.

For the compound `CC[C@H]1O[C@H](O[C@@H]2c3cc4c(cc3[C@@H](c3cc(OC)c(O)c(OC)c3)[C@H]3C(=O)OC[C@@H]32)OCO4)CC[C@H]1O`, the half-maximal inhibitory concentration (IC50) in assay [1], in assay [2], in assay [4] and in assay [3] was 41.6 nM in each case.

Regarding `COc1cc([C@@H]2c3cc4c(cc3[C@@H](O[C@H]3CC[C@@H](O)[C@@H](C)O3)[C@H]3COC(=O)[C@H]23)OCO4)cc(OC)c1O`, the half-inhibitory concentration (IC50) in assay [1], in assay [2], in assay [4] and in assay [3] was 41.6 nM throughout.

Consider `COc1cc([C@@H]2c3cc4c(cc3[C@@H](n3cc(COC(=O)CCCCCNC(=O)CCCC[C@@H]5SC[C@@H]6NC(=O)N[C@@H]65)nn3)[C@H]3COC(=O)[C@H]23)OCO4)cc(OC)c1OC`, for which the 50% inhibitory concentration (IC50) in assay [2], in assay [4], in assay [5], in assay [6] and in assay [7] was more than 130 nM each time.

As for `CCC[C@@H]1O[C@@H](O[C@H]2c3cc4c(cc3[C@@H](c3cc(OC)c(OC)c(OC)c3)[C@H]3C(=O)OC[C@@H]32)OCO4)CC[C@H]1O`, the IC50 in assay [1], in assay [2], in assay [4] and in assay [3] was 41.6 nM throughout.

Take `COc1cc([C@@H]2c3cc4c(cc3[C@@H](O[C@H]3O[C@H](COC(C)=O)[C@@H](OC(C)=O)[C@H](OC(C)=O)[C@H]3OC(C)=O)[C@H]3COC(=O)[C@H]23)OCO4)cc(OC)c1O`: the IC50 in assay [2], in assay [4], in assay [5], in assay [6] and in assay [7] was more than 140 nM throughout.

Turning to `CCC[C@H]1O[C@@H](O[C@@H]2c3cc4c(cc3[C@@H](c3cc(OC)c(O)c(OC)c3)[C@H]3C(=O)OC[C@@H]32)OCO4)CC[C@H]1O`, the IC50 in assay [1], in assay [2], in assay [4] and in assay [3] was 41.6 nM each time.

In the case of `COc1cc([C@@H]2c3cc4c(cc3[C@@H](O[C@@H]3CC[C@@H](O)[C@@H](C(C)C)O3)[C@H]3COC(=O)[C@H]23)OCO4)cc(OC)c1O`, the IC50 in assay [1], in assay [2], in assay [4] and in assay [3] was 41.6 nM each time.

On to `COc1cc([C@@H]2c3cc4c(cc3[C@@H](n3cc(COC(=O)CCCC[C@@H]5SC[C@@H]6NC(=O)N[C@@H]65)nn3)[C@H]3COC(=O)[C@H]23)OCO4)cc(OC)c1OC`, for which the IC50 in assay [2], in assay [4], in assay [5], in assay [6] and in assay [7] was more than 130 nM throughout.

`COc1cc([C@@H]2c3cc4c(cc3[C@@H](NC(=O)CCCCCNC(=O)CCCC[C@@H]3SC[C@@H]5NC(=O)N[C@@H]53)[C@H]3COC(=O)[C@H]23)OCO4)cc(OC)c1OC`: the IC50 in assay [2], in assay [4], in assay [5], in assay [6] and in assay [7] was more than 130 nM each time.

Turning to `COc1cc([C@@H]2c3cc4c(cc3[C@@H](NC(=O)CCCC[C@@H]3SC[C@@H]5NC(=O)N[C@@H]53)[C@H]3COC(=O)[C@H]23)OCO4)cc(OC)c1O`, the concentration for half-maximal inhibition (IC50) in assay [2], in assay [4], in assay [5], in assay [6] and in assay [7] was more than 130 nM throughout.
